Experimental data from ChEMBL document CHEMBL1152363 (Bioorg Med Chem Lett, 2009).
pIC50: −log10 of the molar value.

Tested on: not listed separately
Assay: Metabolic stability in rat liver microsomes assessed as turnover after 60 mins
Format: ADME, Microsome
Details: read-out: Stability
Work on `N[C@@H](CC(=O)N1CCC[C@H]1CNC(=O)c1ccccc1)Cc1ccccc1F` yielded a metabolised at 1 h of 76%.

Biological target: Dipeptidyl peptidase 4 (Homo sapiens, UniProt P27487)
Sequence (P27487 whole entry): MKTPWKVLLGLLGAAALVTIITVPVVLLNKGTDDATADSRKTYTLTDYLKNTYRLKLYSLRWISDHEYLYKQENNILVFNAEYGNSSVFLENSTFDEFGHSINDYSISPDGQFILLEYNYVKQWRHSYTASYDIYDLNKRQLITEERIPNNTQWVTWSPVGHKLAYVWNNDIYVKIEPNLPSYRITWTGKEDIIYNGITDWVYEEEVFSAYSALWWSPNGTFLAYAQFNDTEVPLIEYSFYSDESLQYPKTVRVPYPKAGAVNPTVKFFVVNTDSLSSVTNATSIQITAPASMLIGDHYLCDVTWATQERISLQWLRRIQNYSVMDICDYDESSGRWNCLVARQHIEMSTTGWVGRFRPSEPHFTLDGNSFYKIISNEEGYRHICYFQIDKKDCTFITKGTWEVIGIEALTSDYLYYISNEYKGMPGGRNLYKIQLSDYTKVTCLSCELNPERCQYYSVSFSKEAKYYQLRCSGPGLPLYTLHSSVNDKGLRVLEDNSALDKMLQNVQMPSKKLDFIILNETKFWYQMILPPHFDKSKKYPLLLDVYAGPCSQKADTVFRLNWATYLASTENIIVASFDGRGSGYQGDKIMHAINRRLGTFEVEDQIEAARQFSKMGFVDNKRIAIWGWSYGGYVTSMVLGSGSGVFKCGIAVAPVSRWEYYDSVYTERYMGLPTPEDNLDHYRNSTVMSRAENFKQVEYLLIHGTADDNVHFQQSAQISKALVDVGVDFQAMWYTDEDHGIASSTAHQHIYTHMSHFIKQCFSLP
Assay: Inhibition of DPP4 by continuous fluorimetric assay
Details: not given
`N[C@@H](CC(=O)N1CCC[C@H]1CNS(=O)(=O)c1ccc(Cl)cc1)Cc1ccccc1F` showed a pIC50 of 7.70.
For `N[C@@H](CC(=O)N1CCC[C@H]1CNC(=O)c1ccccc1F)Cc1ccccc1F`, the pIC50 was 7.31.
Compound `N[C@@H](CC(=O)N1CCC[C@H]1CNC(=O)c1cccc(F)c1)Cc1ccccc1F` has a pIC50 of 7.04.
With `N[C@@H](CC(=O)N1CCC[C@H]1CNC(=O)c1ccc(F)cc1)Cc1ccccc1F` the pIC50 was 7.04.
In the case of `CS(=O)(=O)c1ccc(C(=O)NC[C@@H]2CCCN2C(=O)C[C@H](N)Cc2ccccc2F)cc1`, the pIC50 was 7.11.
`N[C@@H](CC(=O)N1CCC[C@H]1CNC(=O)c1ccccn1)Cc1ccccc1F` showed a pIC50 of 7.33.
With `N[C@@H](CC(=O)N1CCC[C@H]1CNS(=O)(=O)c1cc(Cl)ccc1Cl)Cc1ccccc1F` the pIC50 was 7.62.
Work on `N[C@@H](CC(=O)N1CCC[C@H]1CNC(=O)c1ccccc1)Cc1cccc(Cl)c1` yielded a pIC50 of 7.57.
Compound `N[C@@H](CC(=O)N1CCC[C@H]1CNS(=O)(=O)c1cccc(F)c1)Cc1ccccc1F` has a pIC50 of 7.03.
`N[C@@H](CC(=O)N1CCC[C@H]1CNC(=O)c1ccncc1)Cc1ccccc1F` gave a pIC50 of 7.18.
Compound `CS(=O)(=O)c1ccccc1C(=O)NC[C@@H]1CCCN1C(=O)C[C@H](N)Cc1ccccc1F` has a pIC50 of 7.57.
Compound `N[C@@H](CC(=O)N1CCC[C@H]1CNC(=O)c1cccnc1)Cc1ccccc1F` has a pIC50 of 7.06.
Compound `N[C@@H](CC(=O)N1CCC[C@H]1CNS(=O)(=O)c1ccc(F)cc1)Cc1ccccc1F` has a pIC50 of 7.57.
